The source made the active and inactive calls. For most assays here, no stated cut-off is given here; in the data, active = IC50 of 20 µM or less and inactive = more.
Columns and labels:
Estrogen receptor = target: T1, Estrogen receptor (Homo sapiens, UniProt P03372);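 further: potency for inhibiting coactivator peptide recruitment to the receptor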
T1 sequence (P03372 whole entry): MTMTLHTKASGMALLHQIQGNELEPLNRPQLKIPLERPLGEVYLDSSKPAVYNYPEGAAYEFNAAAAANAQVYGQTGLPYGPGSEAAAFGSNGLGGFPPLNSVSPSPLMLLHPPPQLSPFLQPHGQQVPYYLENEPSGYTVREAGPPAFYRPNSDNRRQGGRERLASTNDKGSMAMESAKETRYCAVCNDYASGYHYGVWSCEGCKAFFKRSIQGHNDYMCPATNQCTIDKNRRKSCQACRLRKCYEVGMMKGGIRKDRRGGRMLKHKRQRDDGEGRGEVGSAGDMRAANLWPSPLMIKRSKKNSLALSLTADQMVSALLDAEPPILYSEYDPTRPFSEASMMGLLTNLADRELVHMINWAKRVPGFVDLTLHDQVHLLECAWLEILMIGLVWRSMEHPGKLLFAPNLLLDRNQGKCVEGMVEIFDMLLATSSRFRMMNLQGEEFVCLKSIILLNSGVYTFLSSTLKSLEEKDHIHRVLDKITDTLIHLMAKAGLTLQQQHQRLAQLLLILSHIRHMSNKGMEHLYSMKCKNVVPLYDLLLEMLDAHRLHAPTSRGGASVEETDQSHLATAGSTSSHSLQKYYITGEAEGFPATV

[1] = target: T2, Small ubiquitin-related modifier 1 (Homo sapiens, UniProt P63165); assay: inhibitors of SUMO1 peptide binding, dose response, biochemical, fluorescence polarization, uHTS hits (AID 624382); assay type: functional; conditions: read-out: IC50_Mean
[2] = target: T2, Small ubiquitin-related modifier 1; assay: inhibitors of SUMO1 partner interactions, dose response, biochemical, FRET (AID 624383); assay type: functional; conditions: read-out: IC50_Mean
Beta Lactamase = Beta Lactamase (Pseudomonas aeruginosa, UniProt Q932Y6); assay: beta-lactamase reporter inhibitor potency, dose response, artefact control for NOD2-RIPK2 interaction inhibitor project, BLA reporter cells, FRET fluorescence (AID 651552); assay type: functional, cell-based
Fatty acid synthase [3] = target: T3, Fatty acid synthase (Homo sapiens, UniProt P49327); assay: FAS thioesterase domain inhibitors, dose response, biochemical, kinetic fluorescence intensity (AID 624326); assay type: functional;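 further: rate of fluorescence rise from hydrolysis of a fluorogenic O-methyl fluorescein ester substrate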
Fatty acid synthase [4] = target: T3, Fatty acid synthase; assay: FAS thioesterase domain inhibitors, dose response, biochemical, endpoint fluorescence intensity, uHTS hits (AID 624327); assay type: functional;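 further: fluorescence from hydrolysis of an O-methyl fluorescein acyl ester substrate by the enzyme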
[5] = Fluorescence-based cell-based high throughput dose response assay for inhibitors of the interaction of nucleotide-binding oligomerization domain containing 2 (NOD2) and the receptor-interacting serine-threonine kinase 2 (RIPK2).; assay type: functional; conditions: Homo sapiens

T3 sequence (P49327 whole entry, the tested form may be a part): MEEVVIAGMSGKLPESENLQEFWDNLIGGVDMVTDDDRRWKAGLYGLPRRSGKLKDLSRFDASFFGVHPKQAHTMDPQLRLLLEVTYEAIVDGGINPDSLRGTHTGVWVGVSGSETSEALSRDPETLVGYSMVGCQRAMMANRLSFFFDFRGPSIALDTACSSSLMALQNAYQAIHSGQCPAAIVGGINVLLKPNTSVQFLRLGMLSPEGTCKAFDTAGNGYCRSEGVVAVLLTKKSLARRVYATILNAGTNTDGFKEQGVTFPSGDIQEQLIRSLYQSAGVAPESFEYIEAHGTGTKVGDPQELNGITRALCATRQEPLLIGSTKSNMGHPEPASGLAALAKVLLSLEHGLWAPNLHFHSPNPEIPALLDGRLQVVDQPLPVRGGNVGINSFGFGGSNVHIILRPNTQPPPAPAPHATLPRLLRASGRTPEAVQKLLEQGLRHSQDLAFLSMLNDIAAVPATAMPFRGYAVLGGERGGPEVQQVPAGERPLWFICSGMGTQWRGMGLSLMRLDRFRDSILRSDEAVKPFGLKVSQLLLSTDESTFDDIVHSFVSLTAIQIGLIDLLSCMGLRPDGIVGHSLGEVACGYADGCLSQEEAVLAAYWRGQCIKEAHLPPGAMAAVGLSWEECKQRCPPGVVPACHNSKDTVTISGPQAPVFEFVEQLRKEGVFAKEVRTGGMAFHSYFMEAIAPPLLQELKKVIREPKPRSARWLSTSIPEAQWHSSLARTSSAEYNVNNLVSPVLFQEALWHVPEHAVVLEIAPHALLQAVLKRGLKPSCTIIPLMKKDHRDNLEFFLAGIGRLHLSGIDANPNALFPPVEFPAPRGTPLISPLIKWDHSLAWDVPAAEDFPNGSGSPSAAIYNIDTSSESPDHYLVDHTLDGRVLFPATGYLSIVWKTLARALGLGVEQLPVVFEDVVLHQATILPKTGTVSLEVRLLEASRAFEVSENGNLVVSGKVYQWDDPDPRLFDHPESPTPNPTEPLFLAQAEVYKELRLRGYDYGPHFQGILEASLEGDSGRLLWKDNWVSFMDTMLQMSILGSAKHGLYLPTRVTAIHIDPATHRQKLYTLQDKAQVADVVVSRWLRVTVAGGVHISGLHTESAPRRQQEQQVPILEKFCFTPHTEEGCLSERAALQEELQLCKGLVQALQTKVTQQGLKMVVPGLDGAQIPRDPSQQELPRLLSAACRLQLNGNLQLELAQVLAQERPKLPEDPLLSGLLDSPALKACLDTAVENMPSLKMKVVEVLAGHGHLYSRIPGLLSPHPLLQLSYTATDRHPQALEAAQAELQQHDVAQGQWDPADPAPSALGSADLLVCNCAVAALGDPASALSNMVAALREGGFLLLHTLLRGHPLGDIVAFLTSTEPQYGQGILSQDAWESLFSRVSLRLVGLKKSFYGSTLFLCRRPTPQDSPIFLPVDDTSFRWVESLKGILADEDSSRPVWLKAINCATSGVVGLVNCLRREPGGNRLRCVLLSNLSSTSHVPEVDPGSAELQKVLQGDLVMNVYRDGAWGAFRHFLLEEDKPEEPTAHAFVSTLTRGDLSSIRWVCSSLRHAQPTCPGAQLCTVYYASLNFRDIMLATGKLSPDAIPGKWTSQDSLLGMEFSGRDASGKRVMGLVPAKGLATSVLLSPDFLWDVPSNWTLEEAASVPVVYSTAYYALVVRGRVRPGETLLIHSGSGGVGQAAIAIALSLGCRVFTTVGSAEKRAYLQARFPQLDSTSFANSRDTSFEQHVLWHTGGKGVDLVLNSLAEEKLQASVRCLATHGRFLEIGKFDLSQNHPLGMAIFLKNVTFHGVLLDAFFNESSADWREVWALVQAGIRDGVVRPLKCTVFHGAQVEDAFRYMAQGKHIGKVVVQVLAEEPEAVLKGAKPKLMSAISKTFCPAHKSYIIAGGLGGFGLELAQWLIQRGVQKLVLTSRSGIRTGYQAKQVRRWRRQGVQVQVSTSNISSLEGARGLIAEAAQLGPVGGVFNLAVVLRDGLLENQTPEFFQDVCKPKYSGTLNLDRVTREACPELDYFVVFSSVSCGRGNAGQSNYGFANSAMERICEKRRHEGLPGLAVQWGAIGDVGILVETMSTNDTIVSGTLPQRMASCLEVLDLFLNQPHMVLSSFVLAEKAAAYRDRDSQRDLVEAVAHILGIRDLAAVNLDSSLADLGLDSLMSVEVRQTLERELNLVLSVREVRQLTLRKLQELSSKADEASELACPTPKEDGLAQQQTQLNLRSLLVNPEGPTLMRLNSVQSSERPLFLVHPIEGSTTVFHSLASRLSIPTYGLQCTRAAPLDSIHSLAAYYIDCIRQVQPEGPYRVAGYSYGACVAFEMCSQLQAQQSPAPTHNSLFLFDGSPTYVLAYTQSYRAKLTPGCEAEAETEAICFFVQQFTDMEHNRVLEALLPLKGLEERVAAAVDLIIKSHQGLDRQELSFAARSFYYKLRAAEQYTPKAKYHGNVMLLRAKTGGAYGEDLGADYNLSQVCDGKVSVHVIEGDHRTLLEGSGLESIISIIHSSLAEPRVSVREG
T2 sequence (P63165 whole entry): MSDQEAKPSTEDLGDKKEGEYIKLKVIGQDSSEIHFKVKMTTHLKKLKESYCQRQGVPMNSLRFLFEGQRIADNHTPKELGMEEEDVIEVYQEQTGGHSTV
Beta Lactamase, sequence (Q932Y6 whole entry, the tested form may be a part): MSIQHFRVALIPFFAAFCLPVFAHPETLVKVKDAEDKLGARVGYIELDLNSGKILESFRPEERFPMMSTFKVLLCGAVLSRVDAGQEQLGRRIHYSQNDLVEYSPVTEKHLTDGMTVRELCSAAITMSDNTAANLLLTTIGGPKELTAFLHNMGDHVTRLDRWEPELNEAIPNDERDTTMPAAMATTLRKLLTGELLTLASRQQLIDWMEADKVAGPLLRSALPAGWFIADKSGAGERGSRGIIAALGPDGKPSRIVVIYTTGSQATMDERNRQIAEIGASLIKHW

SMILES	IC50 (Estrogen receptor)	IC50 [1]	IC50 [2]	IC50 (Beta Lactamase)	IC50 (Fatty acid synthase [3])	IC50 (Fatty acid synthase [4])	IC50 [5]
Cc1ccc(-n2nnnc2SCC(=O)Nc2ccc3c(c2)COC3=O)cc1C	27.1 µM (active)	> 66.6 µM (inactive)	8.2 µM (active)				
CCOC(=O)[C@]12Cc3c(cc(OC)c(OC)c3OC)[C@H]1N(C1CCCCC1)C(=O)c1ccccc12				25.5 µM (inactive)	7.77 µM (active)	8.89 µM (active)	2.03 µM (active)
